# Where a name gives a salt, the structure may show the parent alone. Read-outs that look alike come from different tables or passages of the source.
# How the values were obtained:
# [1] = cited from earlier work
# [2] = In vitro elution of the API from implants in an elution bath of 0.9% saline at 37° C., exchanges analyzed by HPLC; format: physicochemical
# Procedure: The testing method set forth in the examples to determine the elution rates for the respective actives included placing the implants in an elution bath consisting of 50 mL 0.9% saline at 37° C. Weekly exchanges of the elution media were analyzed by HPLC for the durations given.
# A drug implant was manufactured as described in Example 1 using an aliphatic, polyether-based polyurethane (TECOFLEX® EG-93A polyurethane) as the tubing material. […] Nine pellets of the anastrozole blend were then placed inside the tubing. A total of about 370 mg anastrozole per implant was used. The implants were sterilized by gamma irradiation and placed in an elution bath of 0.9% saline (50 mL) at 37° C. Regular exchanges of the elution media were analyzed by HPLC for over 400 days.
# Implants D and E were then tested for in vitro elution, as described in Example 2.
# The implants were sterilized by gamma irradiation and placed in an elution bath of 0.9% saline (200 mL) at 37° C.
# Drug containing pellets were manufactured as described in Example 1, and the polymeric sorption enhancer croscarmellose sodium was added to the drug blend. Nine pellets of a drug blend with various concentrations of anastrozole and croscarmellose, with the remainder being 2% stearic acid as lubricant, were placed into a polyurethane tubing (TECOFLEX® EG-93A). The implants were sterilized by gamma irradiation and placed in an elution batch consisting of 50 mL saline at 37° C. Weekly exchanges of the elution media were analyzed by HPLC for 13 weeks.
# Drug containing pellets were manufactured as described in Example 1, and the polymeric sorption enhancer croscarmellose sodium was added to the drug blend. […] The implants were sterilized by gamma irradiation and placed in an elution batch consisting of 500 mL saline at 37° C. Weekly exchanges of the elution media were analyzed by HPLC for 11 weeks.
# A total of about 250 mg fingolimod were loaded into the implants with 10% croscarmellose and 2% stearic acid. The implants were sterilized by gamma irradiation and placed in an elution batch consisting of 800 mL 0.9% saline at 37° C. Weekly exchanges of the elution media were analyzed by HPLC for up to 30 weeks.
# The drug implants were manufactured as described in Example 26 using TECOFLEX® EG-80A, TECOFLEX® EG-85A, TECOFLEX® EG-93A, TECOFLEX® EG-100A, TECOFLEX® EG-65D, or TECOFLEX® EG-68D polyurethanes as the tubing materials and varenicline tartrate as the API. […] A total of about 350 mg varenicline tartrate were loaded into each implant with 10% croscarmellose and 2% stearic acid. The implants were sterilized by gamma irradiation and placed in an elution batch consisting of 200 mL 0.9% saline at 37° C. Weekly exchanges of the elution media were analyzed by HPLC for up to 11 weeks.
# The drug implant was manufactured as described in Example 26 using TECOFLEX® EG-93A polyurethane as the tubing material and varenicline free base as the API. […] A total of about is 250 mg varenicline free base were loaded into the implant with 10% croscarmellose and 2% stearic acid. The implant was sterilized by gamma irradiation and placed in an elution batch consisting of 100 mL 0.9% saline at 37° C.
# [3] = human, in vivo, po
# estrogen formation [4] = test: animal or person; conditions: Homo sapiens, read-out: EC50 (concentration achieving half-maximal response)
# estrogen formation [5] = conditions: indirect effect model with sigmoidal inhibitory drug effect
compound,measurement,setting,value
"Nc1nc2ncc(CNc3ccc(C(=O)N[C@@H](CCC(=O)O)C(=O)O)cc3)nc2c(=O)[nH]1 [Folic acid, folic acid]",Bioavailability,[1]; oral dosage,60%
"CCN(CC)CC#CCOC(=O)C(O)(c1ccccc1)C1CCCCC1 (stereo not drawn) [Oxybutynin HCl, oxybutynin hydrochloride]",release rates from implants,"[2]; TECOFLEX EG-80A and EG-85A implants, oxybutynin HCl",suitable release rates
same,elution from implants,"[2]; TECOFLEX EG-93A, TECOPHILIC HP-60D-05 and HP-60D-10 implants, oxybutynin HCl",failed to elute
"Cc1nc2n(c(=O)c1CCN1CCC(c3noc4cc(F)ccc34)CC1)CCCC2 [Risperidone, 4-[2-[4-(6-fluorobenzo[d]isoxazol-3-yl)-1-piperidyl]ethyl]-3-methyl-2,6-diazabicyclo[4.4.0]deca-1,3-dien-5-one]",elution rate,"[2]; TECOFLEX EG-80A implant, 2% croscarmellose, 500 mL saline, week 2","about 1,450 μg/day"
same,elution rate,"[2]; TECOFLEX EG-80A implant, 2% croscarmellose, 500 mL saline, week 11",about 850 μg/day
same,elution rate,"[2]; TECOFLEX EG-80A implant, 12% croscarmellose, 500 mL saline, week 2","about 1,800 μg/day"
same,elution rate,"[2]; TECOFLEX EG-80A implant, 12% croscarmellose, 500 mL saline, week 11","about 1,400 μg/day"
same,daily elution rates with a sorption enhancer in comparison to an implant without,"[2]; TECOFLEX EG-80A, 10% croscarmellose vs none, 200 mL saline",significantly higher
same,drug release compared to no added sorption enhancer,"[2]; TECOFLEX EG-80A, 10% polyethylene oxide, sodium polyacrylate or chondroitin sulfate",increased the drug release
same,drug release compared to no added sorption enhancer,"[2]; TECOFLEX EG-80A, 10% sodium carboxymethyl cellulose",increased the drug release
same,drug release compared to no added sorption enhancer,"[2]; TECOFLEX EG-80A, even the smallest percentage of croscarmellose sodium",increased the drug release
same,time of peak active moiety plasma concentration following administration,[3],≤ 3 h
"O=C1CCc2ccc(OCCCCN3CCN(c4cccc(Cl)c4Cl)CC3)cc2N1 [Aripiprazole, aripiprazole]",Bioavailability,[1]; oral dosage,85%
"c1cnc2cc3c(cc2n1)[C@@H]1CNC[C@H]3C1 [varenicline free base, varenicline]",release rate,"[2]; TECOFLEX EG-93A implant, 100 mL saline","about 1,750 μg/day"
same,elution rates in vitro in comparison to the salt form,[2]; free base vs HCl or tartrate salt,higher and more stable
"CCN(C)C(=O)Oc1cccc([C@H](C)N(C)C)c1 [Rivastigmine Tartrate, rivastigmine tartrate]",Bioavailability,[1]; oral dosage,35%
"CCN(CC)CC#CCOC(=O)C(O)(c1ccccc1)C1CCCCC1 (stereo not drawn) [oxybutynin free base, oxybutynin]",elution from implants,"[2]; TECOFLEX EG-80A and EG-85A implants, oxybutynin free base",essentially streamed out
same,release rates from implants,"[2]; TECOFLEX EG-93A, TECOPHILIC HP-60D-05 and HP-60D-10 implants, oxybutynin free base",suitable and controllable release rates
same,Bioavailability,[1]; oral dosage,~6%
"CCCN(CCc1cccs1)[C@H]1CCc2c(O)cccc2C1 [Rotigotine, rotigotine]",Bioavailability,[1]; transdermal,35%
"Cc1ccc(O)c([C@H](CCN(C(C)C)C(C)C)c2ccccc2)c1 [Tolterodine Tartrate, tolterodine tartrate]",Bioavailability,[1]; oral dosage,~75%
"C[C@]12C=CC(=O)N[C@@H]1CC[C@@H]1[C@@H]2CC[C@]2(C)[C@@H](C(=O)Nc3cc(C(F)(F)F)ccc3C(F)(F)F)CC[C@@H]12 [Dutasteride, dutasteride]",Bioavailability,[1]; oral dosage,~60%
"C#CCN(C)[C@H](C)Cc1ccccc1 [Selegiline HCl, selegiline HCl]",Bioavailability,[1]; buccal 1.25 mg/day,90%
"N#Cc1ccc(C(c2ccc(C#N)cc2)n2cncn2)cc1 [Letrozole, letrozole]",Bioavailability,[1]; oral dosage,99%
"Cc1nc2n(c(=O)c1CCN1CCC(c3noc4cc(F)ccc34)CC1)CCCC2O (stereo not drawn) [Paliperidone, paliperidone]",Bioavailability,[1]; oral dosage,28%
varenicline tartrate,drug release from implants,"[2]; TECOFLEX EG-80A and EG-85A implants, after a long incubation phase",released but without any control over the release
same,drug release from implants,"[2]; TECOFLEX EG-93A, EG-100A, EG-65D and EG-68D implants, 200 mL saline",no drug was released
"CC(C)(C#N)c1cc(Cn2cncn2)cc(C(C)(C)C#N)c1 [Anastrozole, anastrozole]",EC50,estrogen formation [4],0.000565 ng/mL
same,Hill coefficient of the concentration response curve on estrogen,estrogen formation [5],0.455
same,duration of pseudo-zero order elution rate,"[2]; FIG. 4, aliphatic polyether-based urethane implant (Example 2)",over 400 days
same,duration of pseudo-zero order elution,"[2]; FIG. 8, polyether-based polyurethane excipient",over one year
same,"elution profile, 9 pellets versus 7 pellets",[2]; FIG. 10,higher elution profile
same,duration of pseudo-zero order elution rate,"[2]; FIG. 13, 10% sorption enhancer (croscarmellose)",over 80 days
same,duration of pseudo-zero order elution rate,"[2]; FIG. 14, 10% sodium carboxymethyl starch",over 80 days
same,duration of pseudo-zero order elution rate,"[2]; FIG. 14, 10% sodium starch glycolate",over 80 days
same,drug release rate on increasing sodium polyacrylate from 10% to 14% of the drug blend,[2]; TECOFLEX EG-93A,increased the drug release rate
same,elution rate,"[2]; TECOFLEX EG-93A implant, 2% croscarmellose, 50 mL saline",about 250 μg/day
same,elution rate,"[2]; TECOFLEX EG-93A implant, 10% croscarmellose, 50 mL saline",about 850 μg/day
same,release with increased load into the implant,"[2]; TECOFLEX EG-93A, about 125 mg to about 540 mg per implant, over 70 days",linear release
same,drug release compared to no added sorption enhancer,"[2]; TECOFLEX EG-93A, even the smallest percentage of croscarmellose sodium",increased the drug release
same,drug release compared to no added sorption enhancer,"[2]; TECOFLEX EG-93A, sodium polyacrylate",increased the drug release
same,Bioavailability,[1]; oral dosage,80-85%
